Assay results from PMC7689835 (Journal of Clinical Pharmacology, 2020).

Columns and labels:
FLT3 kinase = settings: read-out: dissociation constant (Kd); cited from earlier work
[1] = Observed plasma PK in clinical studies; assay type: in vivo, human; settings: for geometric mean ratio of AC886 AUC0-24,ss to quizartinib AUC0-24,ss: noncompartmental analysis
[2] = Population PK model of AC886; assay type: in vivo, human
[3] = cited from earlier work
[4] = Population PK model of quizartinib; assay type: in vivo, human
[5] = cited from earlier work; remark: listed apart in the source
[6] = before relative F1 for patients was incorporated into the model
[7] = interoccasion variability, occasion 1
[8] = interoccasion variability, occasion 2
[9] = interoccasion variability, occasion 3
[10] = interoccasion variability, occasion 4

Compound: CC(C)(CO)c1cc(NC(=O)Nc2ccc(-c3cn4c(n3)sc3cc(OCCN5CCOCC5)ccc34)cc2)no1 [AC886]
- Kd (FLT3 kinase): 1.1 nM
- median accumulation ratio ([1]; patients from the QuANTUM-R study, multiple daily doses): 8.4
- geometric mean ratio of AC886 AUC0-24,ss to quizartinib AUC0-24,ss ([1]; study 2689-CL-2004, 30-mg cohort): 0.544
- geometric mean ratio of AC886 AUC0-24,ss to quizartinib AUC0-24,ss ([1]; study 2689-CL-2004, 60-mg cohort): 0.485
- FMET (fraction of quizartinib converted to AC886) ([2]; FIXED, based on AUC ratio in phase 2 study): 0.500
- effect of mild or moderate hepatic impairment on PK ([2]; based on baseline liver function values): no effect
- Magnitude of interindividual variability in Vcm ([2]; final estimate): 117% CV
- increase in CLm with concomitant strong CYP3A inhibitor use ([2]; final model): 10.6%
- increase in Vcm with concomitant strong CYP3A inhibitor use ([2]; final model): 192%
- IIV in CLm in healthy volunteers ([2]; healthy volunteers): 45.9% CV
- IIV in CLm in patients ([2]; patients with AML): 64.1% CV
- CLm (apparent clearance for metabolite) ([2]; population mean): 4.09 L/h
- CLm (fractional change in CLm for race black) ([2]; population mean): 0.586
- CLm (fractional change in CLm for strong CYP3A inhibitors) ([2]; population mean): 0.106
- CLm (power of BSA in CLm) ([2]; population mean): 1.60
- Vcm (fractional change in Vcm for strong CYP3A inhibitors) ([2]; population mean): 1.92

Compound: CO[C@@H]1[C@H](N(C)C(=O)c2ccccc2)C[C@H]2O[C@]1(C)n1c3ccccc3c3c4c(c5c6ccccc6n2c5c31)C(=O)NC4 [midostaurin]
- decrease in exposure with CYP3A4 induction by rifampicin [3]: > 10 fold
- increase in exposure with CYP3A inhibition by ketoconazole [3]: > 10 fold

Compound: CC(C)(C)c1cc(NC(=O)Nc2ccc(-c3cn4c(n3)sc3cc(OCCN5CCOCC5)ccc34)cc2)no1 [quizartinib]
- increase in CL in patients with AML (initial characterization) [4, 6]: 75%
- increase in Vc in patients with AML (initial characterization) [4, 6]: 36%
- increase in Vp1 in patients with AML (initial characterization) [4, 6]: 102%
- effect of eGFR on quizartinib CL ([4]; covariate test and sensitivity analysis): No significant effect
- Magnitude of interindividual variability in ALAG1 ([4]; final estimate): 62.0% CV
- Magnitude of interindividual variability in CL ([4]; final estimate): 55.1% CV
- Magnitude of interindividual variability in D1 ([4]; final estimate): 69.3% CV
- Magnitude of interindividual variability in F1 ([4]; final estimate): 34.8% CV
- Magnitude of interindividual variability in Ka ([4]; final estimate): 38.5% CV
- Magnitude of interindividual variability in Q1 ([4]; final estimate): 24.8% CV
- Magnitude of interindividual variability in Vc ([4]; final estimate): 27.6% CV
- Magnitude of interindividual variability in Vp1 ([4]; final estimate): 39.7% CV
- decrease in CL with strong CYP3A inhibitor use ([4]; final model): 44.1%
- increase in CL for patients with AML versus healthy volunteers ([4]; final model): 8.2%
- increase in F1 with strong CYP3A inhibitor use ([4]; final model): 13.6%
- reduction in bioavailability for patients with AML versus healthy volunteers ([4]; final model): 40.1%
- Vd ([4]; human, plasma, oral): 194 L
- IOV in CL on occasion 1 [4, 7]: 40.9% CV
- IOV in F1 on occasion 1 [4, 7]: 22.6% CV
- IOV in Vc on occasion 1 [4, 7]: 20.3% CV
- IOV in CL on occasion 2 [4, 8]: 40.9% CV
- IOV in Vc on occasion 2 [4, 8]: 20.3% CV
- IOV in CL on occasion 3 [4, 9]: 40.9% CV
- IOV in F1 on occasion 3 [4, 9]: 22.6% CV
- IOV in Vc on occasion 3 [4, 9]: 20.3% CV
- IOV in CL on occasion 4 [4, 10]: 40.9% CV
- IOV in Vc on occasion 4 [4, 10]: 20.3% CV
- ALAG1 (absorption lag time) ([4]; population mean): 0.205 h
- CL (apparent clearance for parent) ([4]; population mean): 2.77 L/h
- D1 (duration of zero-order input to depot compartment) ([4]; population mean): 0.708 h
- F1 (fractional change in F1 for strong CYP3A inhibitors) ([4]; population mean): 0.136
- F1 (fractional change in study 019 F1 for fed) ([4]; population mean): 0.0509
- Q1 (exponent for BSA on Q1) ([4]; population mean): 0.970
- Vc (exponent of [ALB/4.1] for Vc) ([4]; population mean): −0.725
- Vc (exponent of [BSA/1.9] for Vc) ([4]; population mean): 1.46
- Vp1 (exponent for BSA on Vp1) ([4]; population mean): 1.50
- Vp1 (exponent for age on Vp1) ([4]; population mean): 0.453
- Ka (first-order absorption constant for healthy participants) ([4]; population mean, healthy participants): 0.874 h⁻¹
- Ka (first-order absorption constant for patients) ([4]; population mean, patients with AML): 1.68 h⁻¹
- Ka (fractional change in Ka for fed status [019 only]) ([4]; population mean, study AC220-019, fed vs fasted): −0.512
- decrease in ka under fed versus fasted conditions ([4]; study AC220-019): 51.2%
- increase in F1 under fed versus fasted conditions ([4]; study AC220-019): 5.1%
- increase in quizartinib exposure by strong CYP3A inhibitors ([5]; drug-drug interaction study with ketoconazole or fluconazole): approximately 2 fold
- effect of lansoprazole on bioavailability ([5]; phase 1 study): did not result in a meaningful change
- Tmax ([1]; human, plasma, oral, observed Tmax, patients with AML): ~2 h

Compound: CCc1nc(C(N)=O)c(Nc2ccc(N3CCC(N4CCN(C)CC4)CC3)c(OC)c2)nc1NC1CCOCC1 [gilteritinib]
- increase in exposure with strong CYP3A inhibitor itraconazole [3]: approximately 2.2 fold
- decrease in exposure with strong CYP3A4 inducer rifampin ([3]; versus gilteritinib alone): 30%
